In general, EC50 refers to the concentration at which the effect is half-maximal. High values mean weaker potency, low ones greater potency. As usually defined, the bioavailability is the share of a dose that reaches the circulation, judged against a reference dose that is usually intravenous.

The target of one data set is S1P1 receptor (Homo sapiens, UniProt P21453). As to the kind of experiment: S1P1 receptor agonistic activity (PathHunter cell strain, chemiluminescent signal detection). Type of data set: cell-based. Particulars: PathHunter cells, agonist mode, 37° C. 90-180 minutes. The procedure:
Test Method: […] Cell Processing i) Thaw the PathHunter cell strain according to the standard procedures. ii) Seed the cell in the 20 μL 384-microwell plate and incubate at 37° C. for an appropriate period. 2. Agonist i) For agonist testing, cells were incubated with the sample to be test to initiate a reaction; ii) The stock solution to be tested has been diluted 5 folds to be a buffer solution; iii) Inject the 5-fold diluted solution (5 μL) into the cells and incubate at 37° C. for 90-180 minutes. […] 3. Signal Detection i) Add 12.5 μL or 15 μL PathHunter detection reagent (50 vol. %) in one portion. Then, incubate at room temperature for 1 hour and generate the detection signal; ii) Use PerkinElmer Evision™ instrument to read the microwell plate to proceed with chemiluminescent signal detection. 4. Data Analysis i) Use CBIS data analysis system for the compound activity analysis. ii) Calculation formula: […]

Data set [1] is described as follows: Evaluation of compound pharmacokinetics in SD rats (intravenous injection and oral administration). Particulars: male, Sprague Dawley, rat, plasma, 2 mg/kg, 2 mpk; for clearance: read-out: Clearance rate; for AUC: read-out: Drug concentration integral: AUC; for half-life: read-out: Half-life period: T1/2 (converted); for bioavailability: oral, read-out: Fraction of bioavailability: F. Format: in vivo. The method, then:
Aim of the experiments: To test pharmacokinetics of the compounds in SD rats. Experimental Materials: Sprague Dawley rats (male, 200-300 g, 7-9 weeks old, Shanghai Slack) Experimental Procedure: The rodent pharmacokinetic characteristics of the compounds after intravenous injection and oral administration were tested by the standard protocol. In the experiments, the transparent solution was prepared with the compounds to be test. The rats were administered single intravenous injection and oral administration. The solvent for intravenous injection and oral administration was aqueous hydroxypropyl β-cyclodextrin solution or normal saline solution with a certain concentration. Collect the blood samples within 24 hours and centrifuge at 3000 G for 15 minutes. Separate the supernatant to obtain the plasma samples. A volume of acetonitrile solution containing internal standard was added 4 times as the sample to precipitate the protein. The supernatant was obtained after centrifuge. An equal volume of water was added and then centrifuge again to collect the supernatant. The LC-MS/MS method was used to quantitatively analyze the blood drug concentration and the pharmacokinetic parameters such as peak concentration, peak time, clearance rate, half-life period, area under the curve of the drug concentration, and fraction of bioavailability, etc. were calculated.

Chain of S1P1 receptor (P21453 whole entry): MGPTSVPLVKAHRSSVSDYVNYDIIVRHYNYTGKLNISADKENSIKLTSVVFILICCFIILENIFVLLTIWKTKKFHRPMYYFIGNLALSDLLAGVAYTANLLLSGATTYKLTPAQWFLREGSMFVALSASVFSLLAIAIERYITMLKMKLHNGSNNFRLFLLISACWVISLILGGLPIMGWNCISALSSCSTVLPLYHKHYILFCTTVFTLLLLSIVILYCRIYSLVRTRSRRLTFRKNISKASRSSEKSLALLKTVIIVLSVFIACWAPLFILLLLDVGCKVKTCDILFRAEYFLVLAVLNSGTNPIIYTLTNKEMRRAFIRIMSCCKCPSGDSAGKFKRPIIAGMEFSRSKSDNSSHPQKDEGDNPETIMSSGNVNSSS

For `CC(C)Oc1ccc(-c2nc(-c3cccc4c3CC3CC(=O)N(CCO)C43)no2)cc1C(F)F` (stereo not shown) [Example 27], the EC50 at S1P1 receptor was < 10 nM. In addition, in data set [1], the clearance is 8.86 mL/min/kg, the AUC came to 4.78 µM·h, the half-life was 21.2 h and the bioavailability is 92.6%.

On to `CC(C)Oc1ccc(-c2nc(-c3cccc4c3CC3CC(=O)N(CCO)C43)no2)cc1OC(F)F` (stereo not shown) [Example 40], for which the EC50 on S1P1 receptor is < 10 nM. Moreover, in data set [1], the clearance was 14.1 mL/min/kg, the AUC was 0.444 µM·h, the half-life was 10.7 h and the bioavailability stood at 82.3%.

(Values after patent US20210300908A1, “S1P1 AGONIST AND APPLICATION THEREOF” (SHIJIAZHUANG SAGACITY SRUG SEVELOPMENT CO., LTD., priority 2016, published 2021).)
